The text below walks through data of patent EP1604970A1, “2-(Biphenyl-3-yl)-carboxylic acids of gamma-secretase-modulating activity” (CELLZOME AG, priority 2004, dated 2005).

One experiment deals with γ-secretase. Briefly: Screening for γ-secretase-modulating activity in SKN neuroblastoma cells carrying the APP "swedish mutation" (assay of Citron et al 1997). The experiment is classed as cell-based.
Conditions: not given
On the procedure:
Screening was carried out using SKN neuroblastoma cells carrying the APP-"swedish mutation" (point mutation at 695 of APP) grown in DMEM/NUT-mix F12 (HAM) provided by Gibco (cat no. 31330-38) containing 5% Serum/Fe supplemented with 1% non-essential amino acids, 100 U/ml Pen/Strep. Cells were grown to near confluency. The screening was performed using the assay as described in Citron et al (1997), Nature Medicine. Vol 3: 67-72
For orientation: IC50 means the midpoint of a concentration-inhibition curve. Read a low IC50 as higher potency. As for `CC(C(=O)O)c1cccc(-c2ccc(C(F)(F)F)cc2)c1` (stereo not drawn) [2-(4'-Trifluoromethyl-biphenyl-3-yl)-propionic acid], the IC50 is 24 µM.
`CC(C(=O)O)c1cccc(-c2ccc(OC(F)(F)F)cc2)c1` (stereo not drawn) [2-(4'-Trifluoromethoxy-biphenyl-3-yl)-propionic acid]: the IC50 was determined as 75 µM.
In the case of `CC(C(=O)O)c1cccc(-c2ccc(Cl)cc2)c1` (stereo not drawn) [2-(4'-Chloro-biphenyl-3-yl)-propionic acid], the half-inhibitory concentration (IC50) was determined as 41 µM.
With `O=C(O)Cc1cccc(-c2ccc(C(F)(F)F)cc2)c1` [(4'-Trifluoromethyl-biphenyl-3-yl)-acetic acid], half-maximal inhibition (IC50) required 84 µM.
On to `C[C@@H](C(=O)O)c1ccc(-c2ccccc2)c(F)c1` [R-Flurbiprofen, reference compound], for which inhibition was half-maximal at 247 µM (IC50).

Another experiment has as its target T1, cyclooxygenase-1 (Cox-1) (Ovis aries, UniProt P05979).
T1 construct: purchased Cayman Chemical Company 760111
T1 sequence (P05979 25-600): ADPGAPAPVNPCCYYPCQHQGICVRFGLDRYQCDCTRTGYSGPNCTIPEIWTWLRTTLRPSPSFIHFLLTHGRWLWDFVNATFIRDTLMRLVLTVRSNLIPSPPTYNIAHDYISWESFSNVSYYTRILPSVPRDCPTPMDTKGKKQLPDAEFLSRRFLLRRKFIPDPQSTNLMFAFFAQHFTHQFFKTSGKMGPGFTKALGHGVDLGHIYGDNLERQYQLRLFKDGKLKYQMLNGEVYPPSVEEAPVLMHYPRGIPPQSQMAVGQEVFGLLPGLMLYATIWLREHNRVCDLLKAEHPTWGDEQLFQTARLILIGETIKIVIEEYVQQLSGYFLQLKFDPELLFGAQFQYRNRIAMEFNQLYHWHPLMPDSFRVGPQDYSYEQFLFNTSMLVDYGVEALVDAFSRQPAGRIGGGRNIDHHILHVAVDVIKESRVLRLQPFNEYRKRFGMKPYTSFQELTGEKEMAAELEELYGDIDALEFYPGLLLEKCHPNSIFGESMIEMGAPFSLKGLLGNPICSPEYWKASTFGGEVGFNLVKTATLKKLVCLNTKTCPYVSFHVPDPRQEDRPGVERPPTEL
Briefly: Colorimetric Cox inhibitor screening assay (Cayman Chemical, Cat. No. 760111). It counts as biochemical. The conditions noted are these: at concentrations of up to 300uM. On the procedure:
Inhibition of Cox-1 was determined using the Colorimetric Cox inhibitor screening assay provided by Cayman Chemical Company, Ann Arbor, MI, USA. (Cat. No. 760111) according to manufacturer's instructions. Exemplary studies were carried out using 2-(4'-trifluoromethyl-biphenyl-3-yl)-propionic acid.
As for `CC(C(=O)O)c1cccc(-c2ccc(C(F)(F)F)cc2)c1` (stereo not drawn) [2-(4'-Trifluoromethyl-biphenyl-3-yl)-propionic acid], the “effect on the Cox-1 activity” value is given as “No significant effect”.
